Data taken from US4638009A, “Derivatives of 3-pyrrolidinopropiophenone and a process for preparation thereof” (Hokuriku Pharmaceutical Co., Ltd., priority 1984, dated 1987).
Structures can show the parent of a compound that is named as a salt.

Key:
[1] = in vivo; conditions: mouse
Method: Male ddY mice 5 weeks old were used with 5 animals at a group. The compounds were administrated orally with each dosage. LD50 was determined by the Probit method from dead animals dying within 7 days.

[2] = system: oxotremorine-induced tremor; assay: Effect on oxotremorine-induced tremor; type: in vivo, male ddY mice; conditions: 100 mg/kg p.o., oxotremorine 1 mg/kg i.p. 15 min later, 0=absent to 5=lack of righting reflex; for tremor score, 5 min: passage of time 5 min; for tremor score, 10 min: passage of time 10 min; for tremor score, 15 min: passage of time 15 min; for tremor score, 20 min: passage of time 20 min; for tremor score, 30 min: passage of time 30 min
Method: 3. Effect on oxotremorine-induced tumor
Male ddY mice 5 weeks old were used with 5 animals in a group. The compounds were administrated per os at a dose of 100 mg/kg and after 15 minutes oxotremorine was intraperitoneally administered at dose of 1 mg/kg. The strength of the induced tremor was observed by the method of Suzuki et al (Folia Pharmacologica Japonica, 83, 127(1983) and scored up with passage of time as follows:
4=severe, 5=lack of righting reflex.

[3] = system: nicotine-induced convulsion; assay: Activity on nicotine-induced convulsion; type: in vivo, male ddY mice; conditions: compound 25 mg/kg p.o., nicotine tartrate 3 mg/kg i.v. 15 min later, n=5; for mortality: dead animals because of the convulsions
Method: 2. Activity on nicotine-induced convulsion
Male ddY mice 5 weeks old were used with 5 animals in a group. The compounds were administered per os at a dose of 25 mg/kg. After 15 minutes of drug administration, Nicotine tartarate was administered intravenously at an amount of 3 mg/kg and the tonic convulsions and dead animals because of the convulsions have been measured. The effect of the compounds has been indicated by percentage of appearance of tonic convulsion and the mortality.

[4] = versus Tolperisone; cited from earlier work
[5] = cited from earlier work; for side effect (prior art): in vivo

Compound | LD50 at 168 h ([1]; oral, deaths within 7 days, Probit method, n=5 per group) [mg/kg] | tremor score, 5 min [2] | tremor score, 10 min [2] | tremor score, 15 min [2] | tremor score, 20 min [2] | tremor score, 30 min [2] | appearance of tonic convulsion [3] [%] | mortality [3] [%] | muscle relaxation activity of Eperisone (prior art) [4] | toxicity (prior art) ([5]; Eperisone versus Tolperisone) | side effect (prior art) [5] | LD50 at 168 h ([1]; po) [mg/kg]
CCCCc1ccc(C(=O)C(C)CN2CCCC2)cc1 (stereo not drawn) [Compound 1, 4'-n-Butyl-2-methyl-3-pyrrolidinopropiophenone] | 520 | 0 | 0.4 | 0.4 | 0.9 | 0.8 | 20 | 40 | – | – | – | –
CCc1ccc(C(=O)C(C)CN2CCCC2)cc1 (stereo not drawn) [Compound 2, 4'-Ethyl-2-methyl-3-pyrrolidinopropiophenone] | – | 0 | 0.4 | 0.3 | 0.4 | 0.4 | 40 | 60 | – | – | – | –
CCc1ccc(C(=O)C(C)CN2CCCCC2)cc1 (stereo not drawn) [Eperisone] | – | – | – | – | – | – | – | – | improvement in muscle relaxation activity | just the same strong toxicity as Tolperisone | hepatic and kidney function disorder | –
CCc1ccc(C(=O)C(C)CN2CCCCC2)cc1 (stereo not drawn) [Reference Drug, Eperisone hydrochloride, reference compound] | – | 0 | 0.4 | 0.3 | 0.2 | 0 | 60 | 100 | – | – | – | 332
Cc1ccc(C(=O)C(C)CN2CCCCC2)cc1 (stereo not drawn) [Tolperisone] | – | – | – | – | – | – | – | – | – | – | hepatic functional disorder | –
